One assay concerns the target T1, M1 muscarinic receptor (Homo sapiens, UniProt P11229).
T1 construct: expressed in transfected cells; host or cells: CHO (M1-CHO)
T1 sequence (P11229 1-460): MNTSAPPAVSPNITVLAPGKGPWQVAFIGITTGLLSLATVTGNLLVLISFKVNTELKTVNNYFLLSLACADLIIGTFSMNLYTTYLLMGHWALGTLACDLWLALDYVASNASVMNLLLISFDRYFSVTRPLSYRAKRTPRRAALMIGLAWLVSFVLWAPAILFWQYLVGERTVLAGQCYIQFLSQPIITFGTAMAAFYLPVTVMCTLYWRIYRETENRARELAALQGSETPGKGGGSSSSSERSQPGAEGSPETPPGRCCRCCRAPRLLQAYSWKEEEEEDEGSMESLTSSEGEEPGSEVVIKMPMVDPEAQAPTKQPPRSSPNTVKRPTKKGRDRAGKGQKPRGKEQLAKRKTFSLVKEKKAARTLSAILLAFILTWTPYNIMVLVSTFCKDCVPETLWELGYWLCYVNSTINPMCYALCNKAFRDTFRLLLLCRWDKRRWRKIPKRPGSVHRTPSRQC
Description: Functional mobilization of intracellular calcium (FLIPR), M1-CHO cells. In kind it is cell-based. Particulars: for Emax: 100% efficacy is the maximum response obtained using Carbachol as a control; for M1 Activity: M1-CHO cells, FLIPR calcium mobilization. An outline of the steps:
(§1)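 CHO cells expressing M1 or M4, loaded with Fluo-3 AM or Calcium 3 dye with 1 mM probenecid, 0.5% DMSO final. Agonist mode: compound added directly; antagonist mode: 15 min pre-incubation (or co-application) before carbachol at EC80. Fluorescence recorded 60 s on FLIPR.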
Background: Calcium flux is commonly read through the fluorescence of an indicator in the cells.

For another assay, the target named is T2, M4 muscarinic receptor (Homo sapiens, UniProt P08173).
T2 construct: expressed in transfected cells; host or cells: CHO (M4-CHO)
T2 sequence (P08173 1-479): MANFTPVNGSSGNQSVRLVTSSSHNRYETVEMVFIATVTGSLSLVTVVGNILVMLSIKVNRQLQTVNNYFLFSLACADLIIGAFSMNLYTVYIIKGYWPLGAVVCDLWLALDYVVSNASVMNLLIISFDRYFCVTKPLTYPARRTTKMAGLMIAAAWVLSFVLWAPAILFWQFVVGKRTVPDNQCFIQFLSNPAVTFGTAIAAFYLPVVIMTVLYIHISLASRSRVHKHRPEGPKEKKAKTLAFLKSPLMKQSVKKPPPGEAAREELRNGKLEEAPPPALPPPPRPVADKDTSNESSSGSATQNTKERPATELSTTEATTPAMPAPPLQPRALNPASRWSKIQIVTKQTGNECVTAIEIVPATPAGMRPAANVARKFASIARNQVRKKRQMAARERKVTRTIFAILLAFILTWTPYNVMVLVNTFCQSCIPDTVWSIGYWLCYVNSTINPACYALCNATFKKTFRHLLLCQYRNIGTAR
In words: Functional mobilization of intracellular calcium (FLIPR), M4-CHO cells. It counts as cell-based. Particulars: for Emax: 100% efficacy is the maximum response obtained using Carbachol as a control; for M4 Activity: M4-CHO cells, FLIPR calcium mobilization. An outline of the steps: as §1

Structures can show the parent of a compound that is named as a salt.

As a reminder, the Emax is the maximal effect, on the per cent scale that the assay sets. For `CCCOc1ccc(CN2CCC3(CC2)CN(C(C)=O)Cc2ccccc23)cc1` [compound 100], at M1 muscarinic receptor, the Emax is below 25% and the “M1 Activity” value was “+ (activity was measured to be greater than 5.0 μM)”. At M4 muscarinic receptor, the Emax was below 25% and the “M4 Activity” value is reported as “+ (activity was measured to be greater than 5.0 μM)”.

With `CC(=O)N1Cc2ccccc2C2(CCN(Cc3cc(C)c(C)o3)CC2)C1` [compound 101], at M1 muscarinic receptor, the Emax was below 25% and the “M1 Activity” value is “+ (activity was measured to be greater than 5.0 μM)”. For the same compound, at M4 muscarinic receptor, the Emax was below 25% and the “M4 Activity” value is on record as “+ (activity was measured to be greater than 5.0 μM)”.

Turning to `O=C(C1CC1)N1Cc2ccccc2C2(CCN(C3CC4CCC(C3)N4C(=O)OC3CCC3)CC2)C1` (centres unmarked) [compound 102], at M1 muscarinic receptor, the Emax was 25 to 100% and the “M1 Activity” value was “+++ (activity was measured to be less than 1.0 μM)”. On M4 muscarinic receptor, the Emax is 25 to 100% and the “M4 Activity” value is “+++ (activity was measured to be less than 1.0 μM)”.

As for `CCOC(=O)N1CCC(C)(CN2CCC3(CC2)CN(C(C)=O)Cc2ccccc23)CC1` [compound 103, ethyl 4-((2-acetyl-2,3-dihydro-1H-spiro[isoquinoline-4,4′-piperidine]-1′-yl)methyl)-4-methylpiperidine-1-carboxylate hydrochloride], at M1 muscarinic receptor, the maximum response (Emax) lay in the range of 25 to 100% and the “M1 Activity” value is “+++ (activity was measured to be less than 1.0 μM)”. In addition, on M4 muscarinic receptor, the Emax was 25 to 100% and the “M4 Activity” value was “+++ (activity was measured to be less than 1.0 μM)”.

On to `CCOC(=O)N1CCC(N2CCC3(CC2)CN(C(=O)NC(C)C)Cc2ccccc23)CC1` [compound 104], for which, on M1 muscarinic receptor, the Emax was 25 to 100% and the “M1 Activity” value is listed as “+++ (activity was measured to be less than 1.0 μM)”. Moreover, on M4 muscarinic receptor, the Emax lay in the range of 25 to 100% and the “M4 Activity” value is recorded as “+++ (activity was measured to be less than 1.0 μM)”.

Take `COC(=O)c1cccc(CN2CCC3(CC2)CN(C(C)=O)Cc2ccccc23)c1` [compound 105]: on M1 muscarinic receptor, the Emax is below 25% and the “M1 Activity” value is “+ (activity was measured to be greater than 5.0 μM)”. At M4 muscarinic receptor, the Emax is below 25% and the “M4 Activity” value is “+ (activity was measured to be greater than 5.0 μM)”.

`CCCCNC(=O)N1Cc2ccccc2C2(CCN(C3CCN(C(=O)OCC)CC3)CC2)C1` [compound 106]: at M1 muscarinic receptor, the Emax fell in the range of 25 to 100% and the “M1 Activity” value is on record as “+++ (activity was measured to be less than 1.0 μM)”. Moreover, at M4 muscarinic receptor, the Emax was in the range of 25 to 100% and the “M4 Activity” value is reported as “+++ (activity was measured to be less than 1.0 μM)”.

As to `COc1ccc(CN2CCC3(CC2)CN(C(C)=O)Cc2ccccc23)cc1F` [compound 107], at M1 muscarinic receptor, the Emax was below 25% and the “M1 Activity” value is “+ (activity was measured to be greater than 5.0 μM)”. On M4 muscarinic receptor, the Emax is below 25% and the “M4 Activity” value is given as “+ (activity was measured to be greater than 5.0 μM)”.

Consider `CCOC(=O)N1CCC(N2CCC3(CC2)CN(C(=O)N2CCCC2)Cc2ccccc23)CC1` [compound 110], for which, at M1 muscarinic receptor, the Emax fell in the range of 25 to 100% and the “M1 Activity” value is reported as “+++ (activity was measured to be less than 1.0 μM)”. On M4 muscarinic receptor, the Emax was in the range of 25 to 100% and the “M4 Activity” value was “+++ (activity was measured to be less than 1.0 μM)”.

`CCOC(=O)N1C2CCC(N3CCC4(CC3)CN(C(=O)OC3CCC3)Cc3ccccc34)CC1CC2` (centres unmarked) [compound 112]: on M1 muscarinic receptor, the Emax lay in the range of 25 to 100% and the “M1 Activity” value is “+++ (activity was measured to be less than 1.0 μM)”. Moreover, at M4 muscarinic receptor, the Emax fell in the range of 25 to 100% and the “M4 Activity” value was “+++ (activity was measured to be less than 1.0 μM)”.

As to `CC(=O)N1Cc2ccccc2C2(CCN(Cc3ccc(F)cc3)CC2)C1` [compound 115], at M1 muscarinic receptor, the Emax was below 25% and the “M1 Activity” value is “+ (activity was measured to be greater than 5.0 μM)”. Also, at M4 muscarinic receptor, the Emax was below 25% and the “M4 Activity” value is given as “+ (activity was measured to be greater than 5.0 μM)”.

Take `CC(=O)N1Cc2ccccc2C2(CCN(Cc3ccc4c(c3)CCO4)CC2)C1` [compound 116]: at M1 muscarinic receptor, the Emax is below 25% and the “M1 Activity” value was “+ (activity was measured to be greater than 5.0 μM)”. Further, at M4 muscarinic receptor, the Emax is below 25% and the “M4 Activity” value is listed as “+ (activity was measured to be greater than 5.0 μM)”.

Regarding `COC(=O)c1ccccc1CN1CCC2(CC1)CN(C(C)=O)Cc1ccccc12` [compound 118], on M1 muscarinic receptor, the Emax was below 25% and the “M1 Activity” value is on record as “+ (activity was measured to be greater than 5.0 μM)”. Further, at M4 muscarinic receptor, the Emax is below 25% and the “M4 Activity” value is on record as “+ (activity was measured to be greater than 5.0 μM)”.

Take `CCCS(=O)(=O)N1Cc2ccccc2C2(CCN(C3CC4CCC(C3)N4C(=O)OC3CCC3)CC2)C1` (centres unmarked) [compound 119]: at M1 muscarinic receptor, the Emax lay within 25 to 100% and the “M1 Activity” value was “+++ (activity was measured to be less than 1.0 μM)”. At M4 muscarinic receptor, the maximal effect (Emax) is 25 to 100% and the “M4 Activity” value is on record as “+++ (activity was measured to be less than 1.0 μM)”.

Consider `CCOC(=O)N1CCC(N2CCC3(CC2)CN(C(=O)OCC)Cc2ccccc23)CC1` [compound 120], for which, on M1 muscarinic receptor, the Emax lay within 25 to 100% and the “M1 Activity” value is given as “+++ (activity was measured to be less than 1.0 μM)”. In addition, at M4 muscarinic receptor, the Emax was in the range of 25 to 100% and the “M4 Activity” value is recorded as “+++ (activity was measured to be less than 1.0 μM)”.

`COc1cccc(CN2CCC3(CC2)CN(C(C)=O)Cc2ccccc23)c1` [compound 121]: on M1 muscarinic receptor, the Emax was below 25% and the “M1 Activity” value is given as “+ (activity was measured to be greater than 5.0 μM)”. On M4 muscarinic receptor, the Emax was below 25% and the “M4 Activity” value is “+ (activity was measured to be greater than 5.0 μM)”.

With `CCCCC(=O)N1Cc2ccccc2C2(CCN(C3CCN(C(=O)OCC)CC3)CC2)C1` [compound 122], at M1 muscarinic receptor, the Emax was 25 to 100% and the “M1 Activity” value was “+++ (activity was measured to be less than 1.0 μM)”. Further, on M4 muscarinic receptor, the Emax lay in the range of 25 to 100% and the “M4 Activity” value was “+++ (activity was measured to be less than 1.0 μM)”.

For the compound `CCOC(=O)N1CCC(N2CCC3(CC2)CN(C2CCCCC2C)Cc2ccccc23)CC1` (centres unmarked) [compound 123], on M1 muscarinic receptor, the Emax was in the range of 25 to 100% and the “M1 Activity” value is recorded as “+++ (activity was measured to be less than 1.0 μM)”. Besides, on M4 muscarinic receptor, the Emax was in the range of 25 to 100% and the “M4 Activity” value is recorded as “+++ (activity was measured to be less than 1.0 μM)”.

`CCOC(=O)N1CCC(CN2CCC3(CC2)CN(C(=O)c2cccs2)Cc2ccccc23)CC1` [compound 124]: on M1 muscarinic receptor, the Emax lay within 25 to 100% and the “M1 Activity” value is given as “+++ (activity was measured to be less than 1.0 μM)”. For the same compound, on M4 muscarinic receptor, the Emax lay within 25 to 100% and the “M4 Activity” value is on record as “+++ (activity was measured to be less than 1.0 μM)”.

Turning to `CCCOC(=O)N1C2CCC1CC(N1CCC3(CC1)CN(S(=O)(=O)N(C)C)Cc1ccccc13)C2` (centres unmarked) [compound 125], at M1 muscarinic receptor, the Emax lay in the range of 25 to 100% and the “M1 Activity” value is “+++ (activity was measured to be less than 1.0 μM)”. At M4 muscarinic receptor, the Emax was in the range of 25 to 100% and the “M4 Activity” value is on record as “+++ (activity was measured to be less than 1.0 μM)”.

As for `CCOC(=O)N1C2CCC1CC(N1CCC3(CC1)CN(C(=O)CC(F)(F)F)Cc1ccccc13)C2` (centres unmarked) [compound 126], at M1 muscarinic receptor, the Emax lay within 25 to 100% and the “M1 Activity” value was “+++ (activity was measured to be less than 1.0 μM)”. Further, at M4 muscarinic receptor, the Emax is 25 to 100% and the “M4 Activity” value is reported as “+++ (activity was measured to be less than 1.0 μM)”.

For the compound `CCOC(=O)N1CCC(CN2CCC3(CC2)CN(C(=O)NC2CCCC2)Cc2ccccc23)CC1` [compound 127], on M1 muscarinic receptor, the Emax was 25 to 100% and the “M1 Activity” value is “+++ (activity was measured to be less than 1.0 μM)”. Also, at M4 muscarinic receptor, the Emax fell in the range of 25 to 100% and the “M4 Activity” value is “+++ (activity was measured to be less than 1.0 μM)”.

On to `CCOC(=O)N1CCC(CN2CCC3(CC2)CN(C(=O)OC)Cc2ccccc23)CC1` [compound 128], for which, on M1 muscarinic receptor, the Emax was in the range of 25 to 100% and the “M1 Activity” value is given as “+++ (activity was measured to be less than 1.0 μM)”. Also, at M4 muscarinic receptor, the Emax lay in the range of 25 to 100% and the “M4 Activity” value is recorded as “+++ (activity was measured to be less than 1.0 μM)”.

The record behind these values is patent US7863449B2, “Modulators of muscarinic receptors” (Vertex Pharmaceuticals Incorporated, priority 2004, dated 2011).
